Test results published in patent US9849114B2, “Oxymetazoline for the treatment of ano-rectal disorders” (RDD Pharma Ltd., priority 2011, dated 2017).
Where a name gives a salt, the structure may show the parent alone. Values belong to the molecule of their own block, whether it stands above or below them.

Columns and labels:
Healthy volunteers = assay: Resting anal pressure by anorectal manometry after intraanal administration (Example 1); format: in vivo, human
Procedure: Preparations of phenylephrine hydrochloride and oxymetazoline were prepared. The oxymetazoline was first dissolved in propylene glycol and then added to polyethylene glycol 1500 to obtain a solution in the concentration of 1 mg/1 mL.
The preparations were administered intraanally. The doses are expressed as both a volume of a concentration of the drug solution and also as milligrams of the active ingredient.
Resting anal pressure was determined by anorectal manometry for measuring contractility in the anus and rectum using the ManoScan 360™ catheter (Sierra Scientific Instruments).
Healthy volunteers, men and women of 18 to 55 years old received intraanal dose of 40 mg (40 mL) or 80 mg (80 mL) phenylephrine or a dose of 1 mg oxymetazoline (1 mL; 0.1%). None of the volunteers had symptoms of anal incontinence nor previous anal surgery and presumed to have intact internal and external anal sphincters. Pre-treatment mean resting pressure was 85 mmHg for the phenyephrine 40 mg group, and 81 mmHg for the phenylephrine 80 mg group.
After the application of the aforementioned doses of phenylephrine and oxymetazoline, resting anal pressure was determined at the following time intervals: […], […] The results are summarized in Tables 1 and 2 below and in FIG. 1.

healthy human subjects [1] = assay: Change in resting anal pressure at different oxymetazoline doses (Example 2); format: in vivo
healthy human subjects [2] = assay: Cardiac effect of oxymetazoline: blood pressure and heart rate (Example 2); format: in vivo
Excerpt: The effect of oxymetazoline on cardiac parameters was examined in four healthy human subjects.

[3] = Solubility of oxymetazoline; format: physicochemical; conditions: aqueous and non aqueous media
[4] = test system: patient having a reduced anal resting pressure; conditions: phenylephrine concentrations below 10%, topical; cited from earlier work
[5] = on lowering the pH of formulations, even with PVPs or PEGs; cited from earlier work
[6] = oxymetazoline 1 mg (1 mL; 0.1%) intraanal, time 0 min
[7] = oxymetazoline 1 mg (1 mL; 0.1%) intraanal, time 60 min
[8] = oxymetazoline 1 mg (1 mL; 0.1%) intraanal, time 180 min
[9] = oxymetazoline 1 mg (1 mL; 0.1%) intraanal, time 300 min
[10] = Phenylephrine 40 mg intraanal, time 90 min
[11] = Phenylephrine 40 mg intraanal, time 180 min
[12] = Phenylephrine 40 mg intraanal, time 240 min
[13] = Phenylephrine 80 mg intraanal, time 90 min
[14] = Phenylephrine 80 mg intraanal, time 180 min
[15] = Phenylephrine 80 mg intraanal, time 240 min

Solubility [3]: soluble in aqueous and non aqueous media
Structure (SMILES): Cc1cc(C(C)(C)C)c(O)c(C)c1CC1=NCCN1 [Oxymetazoline, 3-(4,5-dihydro-1H-imidazol-2-ylmethyl)-2,4-dimethyl-6-tert-butyl-phenol]
Change Relative to T = 0 (resting anal pressure) (Healthy volunteers; [6]): 0 mmHg
Resting anal pressure (Healthy volunteers; [6]): 75 mmHg
Change Relative to T = 0 (resting anal pressure) (Healthy volunteers; [7]): 18 mmHg
Resting anal pressure (Healthy volunteers; [7]): 93 mmHg
Change Relative to T = 0 (resting anal pressure) (Healthy volunteers; [8]): 28 mmHg
Resting anal pressure (Healthy volunteers; [8]): 103 mmHg
Change Relative to T = 0 (resting anal pressure) (Healthy volunteers; [9]): 27 mmHg
Resting anal pressure (Healthy volunteers; [9]): 102 mmHg
Increase in the maximum resting pressure relative to the pressure before treatment (Healthy volunteers; oxymetazoline 1 mg intraanal): about 30 mmHg
Time for which the increased resting anal pressure was maintained (Healthy volunteers; oxymetazoline 1 mg intraanal, duration of the recording): at least 5 hours
Change in resting anal pressure (healthy human subjects [1]; Oxymetazoline dose 0.01%): 11 mmHg
Change in resting anal pressure (healthy human subjects [1]; Oxymetazoline dose 0.1%): 18.5 mmHg
Significance of change in resting anal pressure with respect to baseline (healthy human subjects [1]; Oxymetazoline dose 0.1%): statistically significant
Change in resting anal pressure (healthy human subjects [1]; Oxymetazoline dose 0.5%): 24.75 mmHg
Significance of change in resting anal pressure with respect to baseline (healthy human subjects [1]; Oxymetazoline dose 0.5%): statistically significant
Change in diastolic blood pressure (healthy human subjects [2]; Oxymetazoline dose 0.01%): 2 mmHg
Change in heart rate (healthy human subjects [2]; Oxymetazoline dose 0.01%): −3 beats/min
Change in systolic Blood pressure (healthy human subjects [2]; Oxymetazoline dose 0.01%): 6 mmHg
Change in diastolic blood pressure (healthy human subjects [2]; Oxymetazoline dose 0.1%): 0 mmHg
Change in heart rate (healthy human subjects [2]; Oxymetazoline dose 0.1%): 0 beats/min
Change in systolic Blood pressure (healthy human subjects [2]; Oxymetazoline dose 0.1%): 5 mmHg
Change in diastolic blood pressure (healthy human subjects [2]; Oxymetazoline dose 0.5%): 1 mmHg
Change in heart rate (healthy human subjects [2]; Oxymetazoline dose 0.5%): 1 beats/min
Change in systolic Blood pressure (healthy human subjects [2]; Oxymetazoline dose 0.5%): 3 mmHg
Changes in the diastolic blood pressure, systolic blood pressure or in the heart rate (healthy human subjects [2]; low doses of about 0.1%): did not induce any changes
Cardiovascular side effect (healthy human subjects [2]; low doses of oxymetazoline (0.01%-0.5%)): do not induce any cardiovascular side effect

Structure (SMILES): CNC[C@H](O)c1cccc(O)c1 [Phenylephrine]
Maximum increase in anal pressure (Healthy volunteers; 40 mg phenylephrine intraanal): 10 mmHg
Time to reach the initial (pre-treatment) resting anal pressure (Healthy volunteers; 40 mg phenylephrine intraanal): less than 5 hours
Maximum increase in anal pressure (Healthy volunteers; 80 mg phenylephrine intraanal): 22.5 mmHg
Time in which increased pressure dropped nearly to the pressure prior to treatment (Healthy volunteers; 80 mg phenylephrine intraanal): ≤ 3 h
Time in which resting anal pressure dropped down to the pressure observed prior to treatment (Healthy volunteers; 80 mg phenylephrine intraanal): less than 5 hours
Change Relative to T = 0 (resting anal pressure) (Healthy volunteers; Phenylephrine 40 mg intraanal, time 0 min): 0 mmHg
Resting anal pressure (Healthy volunteers; Phenylephrine 40 mg intraanal, time 0 min (pre-treatment)): 85 mmHg
Change Relative to T = 0 (resting anal pressure) (Healthy volunteers; [10]): 10 mmHg
Resting anal pressure (Healthy volunteers; [10]): 95 mmHg
Change Relative to T = 0 (resting anal pressure) (Healthy volunteers; [11]): 7.5 mmHg
Resting anal pressure (Healthy volunteers; [11]): 92.5 mmHg
Change Relative to T = 0 (resting anal pressure) (Healthy volunteers; [12]): 0 (±1.75) mmHg
Resting anal pressure (Healthy volunteers; [12]): 83.25 mmHg
Change Relative to T = 0 (resting anal pressure) (Healthy volunteers; Phenylephrine 80 mg intraanal, time 0 min): 0 mmHg
Resting anal pressure (Healthy volunteers; Phenylephrine 80 mg intraanal, time 0 min (pre-treatment)): 81 mmHg
Change Relative to T = 0 (resting anal pressure) (Healthy volunteers; [13]): 22.5 mmHg
Resting anal pressure (Healthy volunteers; [13]): 103.5 mmHg
Change Relative to T = 0 (resting anal pressure) (Healthy volunteers; [14]): 6.75 mmHg
Resting anal pressure (Healthy volunteers; [14]): 87.75 mmHg
Change Relative to T = 0 (resting anal pressure) (Healthy volunteers; [15]): 0 (±1.75) mmHg
Resting anal pressure (Healthy volunteers; [15]): 80.25 mmHg
Increase in the maximum resting pressure [4]: no significant increase

Structure (SMILES): Cc1cc(C(C)(C)C)c(O)c(C)c1CC1=NCCN1 [oxymetazoline HCl, 6-tert-butyl-3-(2-imidazolin-2-ylmethyl)-2,4-dimentylphenol hydrochloride]
Photodegradation level [5]: significantly reduced
